# Laboratory results published in patent publication US8436015B2, “Glucagon receptor antagonist compounds, compositions containing such compounds and methods of use” (Merck Sharp & Dohme Corp., priority 2008, dated 2013).
# Target: T1, human glucagon receptor (Homo sapiens, UniProt P47871)
# T1 construct: expressed in transfected cells; cell membranes used
# Assay: Glucagon Receptor Binding Assay
# Conditions: more active isomer of indicated compounds; 125I-glucagon displacement, membranes of CHO cells expressing cloned human glucagon receptor
# Protocol: A stable CHO (Chinese hamster ovary) cell line expressing cloned human glucagon receptor was maintained as described (Chicchi et al. J Biol Chem 272, 7765-9 (1997); Cascieri et al. J Biol Chem 274, 8694-7 (1999)). […] After 4-12 hours incubation at room temperature, the radioactivity bound to the cell membranes was determined in a radioactive emission detection counter (Wallac-Microbeta). Data was analyzed using the software program Prism from GraphPad. The IC50 values were calculated using non-linear regression analysis assuming single site competition.
# T1 sequence (P47871 26-477): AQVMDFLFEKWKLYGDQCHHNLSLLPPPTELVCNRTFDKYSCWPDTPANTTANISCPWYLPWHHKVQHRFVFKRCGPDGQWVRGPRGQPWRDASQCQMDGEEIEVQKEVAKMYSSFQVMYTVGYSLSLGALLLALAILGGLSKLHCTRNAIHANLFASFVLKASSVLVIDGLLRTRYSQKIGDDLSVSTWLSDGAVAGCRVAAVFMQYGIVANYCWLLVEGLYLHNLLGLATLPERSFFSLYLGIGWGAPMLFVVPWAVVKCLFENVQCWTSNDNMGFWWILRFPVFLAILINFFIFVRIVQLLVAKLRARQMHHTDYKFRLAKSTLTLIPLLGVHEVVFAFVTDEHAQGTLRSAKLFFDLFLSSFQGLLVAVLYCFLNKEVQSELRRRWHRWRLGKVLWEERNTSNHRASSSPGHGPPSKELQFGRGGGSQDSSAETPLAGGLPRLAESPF
row,SMILES,IC50
1,"CCC[C@H](c1ccc(C(=O)NCCC(=O)O)cc1)C(c1ccc(Cl)cc1)c1ccnc2c(C)cc(Cl)cc12 (single isomer, unassigned) [Example 1]",1 nM
2,CCCC(c1ccc(C(=O)NCCC(=O)O)cc1)C(c1ccc(Cl)cc1)c1nc(C2CCCCC2)c2ccc(C(F)(F)F)cc2n1 (stereo not drawn) [Example 179],4.5 nM
3,CCCC(c1ccc(C(=O)NCCC(=O)O)cc1)C(c1ccc(Cl)cc1)c1ccc2nc(OC)ccc2c1 (stereo not drawn) [Example 120],1.8 nM
4,CCCC(c1ccc(C(=O)NCCC(=O)O)cc1)C(c1ccc(Cl)cc1)c1cccc2nc(OC3CCC3)ccc12 (stereo not drawn) [Example 108],0.4 nM
5,CCCC(c1ccc(C(=O)NCCC(=O)O)cc1)C(c1ccc(Cl)c(Cl)c1)c1ccnc2c(C)cc(Cl)cc12 (stereo not drawn) [Example 84],0.3 nM
6,CCCC(c1ccc(C(=O)NCCC(=O)O)cc1)C(c1ccc(Cl)cc1)c1ccnc2cc(OC(F)(F)F)ccc12 (stereo not drawn) [Example 24],0.1 nM
7,"CCC[C@H](c1ccc(C(=O)NCCC(=O)O)cc1)C(c1ccc(Cl)cc1)c1ncnc2c(F)cc(C)cc12 (single isomer, unassigned) [Example 173]",1.4 nM
8,CCCC(c1ccc(C(=O)NCCC(=O)O)cc1)C(c1ccc(Cl)cc1)c1ccnc2c(C)cc(F)cc12 (stereo not drawn) [Example 35],0.8 nM
9,CCCC(c1ccc(C(=O)NCCC(=O)O)cc1)C(c1ccc(Cl)cc1)c1ccnc2cc(C)c(Cl)cc12 (stereo not drawn) [Example 50],0.5 nM
10,CCCC(c1ccc(C(=O)NCCC(=O)O)cc1)C(c1ccc(Cl)cc1)c1cc(C)nc2cc(Cl)ccc12 (stereo not drawn) [Example 37],0.4 nM
11,O=C(O)CCNC(=O)c1ccc(C(CCC(F)(F)F)C(c2ccc(Cl)cc2)c2cncc3cc(Cl)ccc23)cc1 (stereo not drawn) [Example 138],0.4 nM
12,"CCC[C@H](c1ccc(C(=O)NCCC(=O)O)cc1)C(c1ccc(Cl)cc1)c1cccc2nc(-c3ccn[nH]3)ccc12 (stereo partly drawn) [Example 171, N-(4-{(1S)-1-[(4-Chlorophenyl)(2-(1H-Pyrazol-5-Yl)Quinolin-5-Yl)Methyl]Butyl}Benzoyl)-β-Alanine]",18 nM
13,CCCC(c1ccc(C(=O)NCCC(=O)O)cc1)C(c1cccc(Cl)c1)c1ccnc2cc(F)c(F)cc12 (stereo not drawn) [Example 159],0.6 nM
14,CCCC(c1ccc(C(=O)NCCC(=O)O)cc1)C(c1ccc(Cl)cc1)c1ccnc2c(F)c(C)c(F)cc12 (stereo not drawn) [Example 72],0.2 nM
15,CCCC(c1ccc(C(=O)NCCC(=O)O)cc1)C(c1ccc(Cl)cc1)c1cncc2c(Cl)cccc12 (stereo not drawn) [Example 131],0.5 nM
16,CCCC(c1ccc(C(=O)NCCC(=O)O)cc1)C(c1ccc(Cl)cc1)c1cccc2ccc(OC)nc12 (stereo not drawn) [Example 146],12 nM
17,"CCC[C@H](c1ccc(C(=O)NCCC(=O)O)cc1)C(c1ccc(Cl)cc1)c1cccc2nc(OC)ccc12 (single isomer, unassigned) [Example 2]",0.5 nM
18,"CCCC(c1ccc(C(=O)NCCC(=O)O)cc1)C(c1ccc(Cl)cc1)c1nc(CC)c2cc(OC)ccc2n1 (single isomer, unassigned) [Example 174, N-(4-{1-[(4-Chlorophenyl)(4-Ethyl-6-Methoxyquinazolin-2-Yl)Methyl]Butyl}Benzoyl)-β-Alanine]",1.7 nM
19,CCCC(c1ccc(C(=O)NCCC(=O)O)cc1)C(c1ccc(Cl)cc1)c1ccnc2cc(Cl)ccc12 (stereo not drawn) [Example 7],0.5 nM
20,CCCC(c1ccc(C(=O)NCCC(=O)O)cc1)C(c1ccc(OC(F)(F)F)cc1)c1cncc2cc(Cl)ccc12 (stereo not drawn) [Example 139],0.3 nM
21,O=C(O)CCNC(=O)c1ccc(C(CCC(F)(F)F)C(c2ccc(Cl)cc2)c2ccnc3cc(Cl)ccc23)cc1 (stereo not drawn) [Example 55],0.2 nM
22,CCCC(c1ccc(C(=O)NCCC(=O)O)cc1)C(c1ccc(Cl)cc1)c1ccnc2c(C)cc(OC(F)(F)F)cc12 (stereo not drawn) [Example 52],1.1 nM
23,CCCC(c1ccc(C(=O)NCCC(=O)O)cc1)C(c1ccc(Cl)cc1)c1cccc2nc(OCCOC)ccc12 (stereo not drawn) [Example 112],0.9 nM
24,Cc1cc2nccc(C(c3ccc(Cl)cc3)C(CCC(F)(F)F)c3ccc(C(=O)NCCC(=O)O)cc3)c2cc1F (stereo not drawn) [Example 77],0.2 nM
25,"CCC[C@H](c1ccc(C(=O)NCCC(=O)O)cc1)C(c1ccc(Cl)cc1)c1ccnc2cc(F)c(F)cc12 (single isomer, unassigned) [Example 157]",0.3 nM
26,CCC(c1ccc(C(=O)NCCC(=O)O)cc1)C(c1ccc(OC(F)(F)F)cc1)c1cccc2nc(OC)ccc12 (stereo not drawn) [Example 115],0.3 nM
27,CCCC(c1ccc(C(=O)NCCC(=O)O)cc1)C(c1ccc(Cl)cc1)c1ccnc2c(Cl)cc(OC)cc12 (stereo not drawn) [Example 10],0.6 nM
28,CCCC(c1ccc(C(=O)NCCC(=O)O)cc1)C(c1ccc(OC(F)(F)F)cc1)c1ccnc2cc(F)ccc12 (stereo not drawn) [Example 62],0.2 nM
29,CCCC(c1ccc(C(=O)NCCC(=O)O)cc1)C(c1ccc(Cl)cc1)c1cc(C)nc2ccc(Cl)cc12 (stereo not drawn) [Example 23],1.4 nM
30,"CCC[C@H](c1ccc(C(=O)NCCC(=O)O)cc1)C(c1ccc(Cl)cc1)c1cnc2cc(C(F)(F)F)ccc2c1 (single isomer, unassigned) [Example 3]",5 nM
